Test results from patent publication US20260374739A1, “SMALL MOLECULAR WEIGHT CHEMICAL COMPOUND TO ANTAGONIZE EPH-EPHRIN TETRAMERIZATION AND INHIBIT BIDIRECTIONAL SIGNALING” (THE BOARD OF REGENTS OF THE UNIVERSITY OF TEXAS SYSTEM, priority 2022, published 2026).

molecular target: T1, EphA3-EphrinA1 (Homo sapiens, UniProt P29320); assay: Octet, immobilized human EphA3 binding to human EphrinA1; conditions: 1 μM; read-out: tetramers lost
T1 sequence (P29320 21-541 limits assumed): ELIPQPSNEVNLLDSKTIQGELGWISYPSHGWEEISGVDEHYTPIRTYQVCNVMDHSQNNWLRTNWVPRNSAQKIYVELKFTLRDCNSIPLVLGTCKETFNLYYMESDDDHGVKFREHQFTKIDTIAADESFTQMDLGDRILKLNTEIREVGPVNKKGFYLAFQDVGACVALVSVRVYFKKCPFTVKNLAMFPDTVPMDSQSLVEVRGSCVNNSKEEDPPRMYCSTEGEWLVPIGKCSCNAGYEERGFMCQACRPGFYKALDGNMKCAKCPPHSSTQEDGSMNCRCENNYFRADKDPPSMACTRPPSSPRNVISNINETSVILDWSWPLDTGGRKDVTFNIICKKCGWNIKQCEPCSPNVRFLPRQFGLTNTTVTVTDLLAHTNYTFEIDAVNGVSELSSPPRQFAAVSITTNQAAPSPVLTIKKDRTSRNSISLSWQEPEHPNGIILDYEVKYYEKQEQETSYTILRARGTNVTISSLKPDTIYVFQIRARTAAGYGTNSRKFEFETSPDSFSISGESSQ
Procedure: (§1) The Octet system was used to probe the interactions of epitope-tagged human A class proteins, focusing on immobilized EphA3 binding to two of its cognate ligands, EphrinA1 and EphrinA5, as well as EphB2 binding to EphrinA5 (FIG. 27). […] Focusing on the dimerization-driven EphA3-EA5 interaction first (green sensorgram trace), which mimics what is disclosed above for EphB4-EB2, the initial binding of soluble EphrinA5 to the immobilized EphA3 is very fast and strong with a long and steep 84° slope of response that then quickly bends around 35 sec into the association step to form a more gradual tetramerization accumulation slope. […] However, again like the EphB4-EB2 interaction, once placed into dissociation, a significant fraction of the bound EA5 protein melts quickly and the off phase continues downward with a slow gradual decline in bound protein. Although the dissociation was for only 500 sec, the continued downward slope of the response indicates most of the bound EA5 protein would eventually melt off of the immobilized EphA3 protein. This is referred to as a classic dimerization-driven interaction, fast and strong initial binding in the association step but with most of the bound protein coming off in the dissociation due to lack of formation of stable tetramers. EphA3 interacts with EphrinA1 with totally different kinetics/dynamics (orange sensorgram trace). Here, the initial high 84° dimerization slope phase is extremely brief (5 sec) with the binding quickly snapping into a linear tetramerization accumulation phase with a 25° slope, and that once placed into dissociation step almost no bound protein melts, just the small amount that would represent dimer interactions falling off in the first few seconds after being placed into dissociation. […] EphB2 interacting with EA5 is similar to the EphA3-EA1 interaction, in that the association step is characterized by a very brief (5 sec) high 84° slope phase that quickly bends into a more gradual tetramer accumulation phase (blue sensorgram trace). […] The strong initial off phase of the EphB2-EA5 complexes in the dissociation represents both the melting of weak dimers and of the relatively weaker affinity tetramers formed by the cross A/B class EphB2-EA5 molecules.
(§2) While there is no effect of A20 on the initial 5 sec fast EphA3-EA1 dimer phase, there is a very strong effect of compound on tetramer accumulation. It was estimated that >70% of the EphA3-EA1 binding interaction can be attributed to the tetramer which is effectively disrupted by compound, with very little binding activity attributed to the dimer and more accurately the dimerization:tetramerization ratio of this interaction is 10:90 not 30:70. […] Since this is a dimerization-driven type interaction (dimerization:tetramerization ratio of here is 72:28), the overall effect of compound on this interaction is muted.

For `Oc1c(Br)cc(CN2CCOCC2)c2cccnc12` [Compound 5, 7-bromo-5-(morpholinomethyl)quinolin-8-ol], the inhibition at 1 µM was roughly 50%.

same assay, conditions: 100 μM

For `Oc1c(Br)cc(CN2CCOCC2)c2cccnc12` [Compound 5, 7-bromo-5-(morpholinomethyl)quinolin-8-ol], the “loss of tetramer formation” value was “near complete loss of tetramer formation”.

same assay, conditions: Absolute Association IC50, Human EphA3-EphrinA1; immobilized human EphA3; 50 nM soluble human EphrinA1; association; absolute

First: Oc1c(Cl)cc(CN2CCOCC2)c2cccnc12 [Compound 4, 4-((7-chloro-8-hydroxyquinolin-1-ium-5-yl)methyl)morpholin-4-ium chloride]
Second: O=[N+]([O-])c1cc(CN2CCOCC2)c2cccnc2c1O [Compound 10, 4-((8-hydroxy-7-nitroquinolin-1-ium-5-yl)methyl)morpholin-4-ium chloride]
The IC50 of the first is 7.6-fold lower: 1.84 µM for the first, 14 µM for the second. The first is the more potent here.

same assay, conditions: Absolute Dissociation IC50, Human EphA3-EphrinA1; immobilized human EphA3; 50 nM soluble human EphrinA1; dissociation; absolute

`O=[N+]([O-])c1cc(CN2CCOCC2)c2cccnc2c1O` [Compound 10, 4-((8-hydroxy-7-nitroquinolin-1-ium-5-yl)methyl)morpholin-4-ium chloride] showed an IC50 of 6.3 µM.

same assay, conditions: Human EphA3-EphrinA1; immobilized human EphA3; 50 nM soluble human EphrinA1; association; absolute; read-out: Absolute Association IC50

`Oc1ccc(CN2CCN(Cc3ccc(C(F)(F)F)cc3)CC2)c2cccnc12` [Compound 48, 5-((4-(4-(trifluoromethyl)benzyl)piperazin-1-yl)methyl)quinolin-8-ol] showed an IC50 of 100 µM.

same assay, conditions: Human EphA3-EphrinA1; immobilized human EphA3; 50 nM soluble human EphrinA1; association; relative; read-out: Relative Association IC50

First: Oc1ccc(CN2CCN(Cc3ccc(C(F)(F)F)cc3)CC2)c2cccnc12 [Compound 48, 5-((4-(4-(trifluoromethyl)benzyl)piperazin-1-yl)methyl)quinolin-8-ol]
Second: O=[N+]([O-])c1cc(CN2CCOCC2)c2cccnc2c1O [Compound 10, 4-((8-hydroxy-7-nitroquinolin-1-ium-5-yl)methyl)morpholin-4-ium chloride]
The IC50 of the first is 12-fold higher: 100 µM for the first, 8.3 µM for the second.

same assay, conditions: Human EphA3-EphrinA1; immobilized human EphA3; 50 nM soluble human EphrinA1; dissociation; absolute; read-out: Absolute Dissociation IC50

Compared with `Oc1c(Cl)cc(CN2CCOCC2)c2cccnc12` [Compound 4, 4-((7-chloro-8-hydroxyquinolin-1-ium-5-yl)methyl)morpholin-4-ium chloride], `Oc1ccc(CN2CCN(Cc3ccc(C(F)(F)F)cc3)CC2)c2cccnc12` [Compound 48, 5-((4-(4-(trifluoromethyl)benzyl)piperazin-1-yl)methyl)quinolin-8-ol] is 10-fold higher in IC50: 0.9 µM for the first, 9.4 µM for the second. The first is the more potent here.

same assay, conditions: Human EphA3-EphrinA1; immobilized human EphA3; 50 nM soluble human EphrinA1; dissociation; relative; read-out: Relative Dissociation IC50

Going from `Oc1c(Cl)cc(CN2CCOCC2)c2cccnc12` [Compound 4, 4-((7-chloro-8-hydroxyquinolin-1-ium-5-yl)methyl)morpholin-4-ium chloride] to `O=[N+]([O-])c1cc(CN2CCOCC2)c2cccnc2c1O` [Compound 10, 4-((8-hydroxy-7-nitroquinolin-1-ium-5-yl)methyl)morpholin-4-ium chloride], the IC50 rises from 0.9 µM to 4.23 µM (4.7-fold).

same assay, conditions: Relative Association IC50, Human EphA3-EphrinA1; immobilized human EphA3; 50 nM soluble human EphrinA1; association; relative

`Oc1c(Cl)cc(CN2CCOCC2)c2cccnc12` [Compound 4, 4-((7-chloro-8-hydroxyquinolin-1-ium-5-yl)methyl)morpholin-4-ium chloride] showed an IC50 of 0.89 µM.

same assay, conditions: Relative Dissociation IC50, Human EphA3-EphrinA1; immobilized human EphA3; 50 nM soluble human EphrinA1; dissociation; relative

In the case of `Oc1ccc(CN2CCN(Cc3ccc(C(F)(F)F)cc3)CC2)c2cccnc12` [Compound 48, 5-((4-(4-(trifluoromethyl)benzyl)piperazin-1-yl)methyl)quinolin-8-ol], the IC50 is reported as 5.3 µM.

molecular target: T2, EphA3-EphrinA5 (Homo sapiens, UniProt P29320); assay: Octet, immobilized human EphA3 binding to human EphrinA5; conditions: not given
T2 sequence (P29320 21-541 limits assumed): T1 sequence (P29320 21-541 limits assumed)
Procedure: as §1, §2

Compared with `Oc1c(Cl)cc(CN2CCOCC2)c2cccnc12` [Compound 4, 4-((7-chloro-8-hydroxyquinolin-1-ium-5-yl)methyl)morpholin-4-ium chloride], `O=[N+]([O-])c1cc(CN2CCOCC2)c2cccnc2c1O` [Compound 10, 4-((8-hydroxy-7-nitroquinolin-1-ium-5-yl)methyl)morpholin-4-ium chloride] is 8.3-fold higher in IC50: 0.54 µM for the first, 4.48 µM for the second. The first is the more potent here.

`Oc1ccc(CN2CCN(Cc3ccc(C(F)(F)F)cc3)CC2)c2cccnc12` [Compound 48, 5-((4-(4-(trifluoromethyl)benzyl)piperazin-1-yl)methyl)quinolin-8-ol] showed an IC50 of 4.33 µM.

same assay, conditions: 1 μM

`Oc1c(Br)cc(CN2CCOCC2)c2cccnc12` [Compound 5, 7-bromo-5-(morpholinomethyl)quinolin-8-ol] was tested, and the “loss of tetramer accumulation” value was “striking maximized loss of tetramer accumulation”.

same assay, conditions: Human EphA3-EphrinA5; immobilized human EphA3; 50 nM soluble human EphrinA5; association; absolute; read-out: Absolute Association IC50

Going from `Oc1c(Cl)cc(CN2CCOCC2)c2cccnc12` [Compound 4, 4-((7-chloro-8-hydroxyquinolin-1-ium-5-yl)methyl)morpholin-4-ium chloride] to `O=[N+]([O-])c1cc(CN2CCOCC2)c2cccnc2c1O` [Compound 10, 4-((8-hydroxy-7-nitroquinolin-1-ium-5-yl)methyl)morpholin-4-ium chloride], the IC50 rises from 12.9 µM to 100 µM (7.8-fold). The first is the more potent here.

With `Oc1ccc(CN2CCN(Cc3ccc(C(F)(F)F)cc3)CC2)c2cccnc12` [Compound 48, 5-((4-(4-(trifluoromethyl)benzyl)piperazin-1-yl)methyl)quinolin-8-ol] the IC50 was 100 µM.

same assay, conditions: Human EphA3-EphrinA5; immobilized human EphA3; 50 nM soluble human EphrinA5; association; relative; read-out: Relative Association IC50

Going from `Oc1c(Cl)cc(CN2CCOCC2)c2cccnc12` [Compound 4, 4-((7-chloro-8-hydroxyquinolin-1-ium-5-yl)methyl)morpholin-4-ium chloride] to `O=[N+]([O-])c1cc(CN2CCOCC2)c2cccnc2c1O` [Compound 10, 4-((8-hydroxy-7-nitroquinolin-1-ium-5-yl)methyl)morpholin-4-ium chloride], the IC50 rises from 1 µM to 2.49 µM (2.5-fold).

`Oc1ccc(CN2CCN(Cc3ccc(C(F)(F)F)cc3)CC2)c2cccnc12` [Compound 48, 5-((4-(4-(trifluoromethyl)benzyl)piperazin-1-yl)methyl)quinolin-8-ol] was tested, and the IC50 was 3.25 µM.

same assay, conditions: Human EphA3-EphrinA5; immobilized human EphA3; 50 nM soluble human EphrinA5; dissociation; absolute; read-out: Absolute Dissociation IC50

Compared with `Oc1c(Cl)cc(CN2CCOCC2)c2cccnc12` [Compound 4, 4-((7-chloro-8-hydroxyquinolin-1-ium-5-yl)methyl)morpholin-4-ium chloride], `Oc1ccc(CN2CCN(Cc3ccc(C(F)(F)F)cc3)CC2)c2cccnc12` [Compound 48, 5-((4-(4-(trifluoromethyl)benzyl)piperazin-1-yl)methyl)quinolin-8-ol] is 10-fold higher in IC50: 0.62 µM for the first, 6.24 µM for the second.

same assay, conditions: Human EphA3-EphrinA5; immobilized human EphA3; 50 nM soluble human EphrinA5; dissociation; relative; read-out: Relative Dissociation IC50

`O=[N+]([O-])c1cc(CN2CCOCC2)c2cccnc2c1O` [Compound 10, 4-((8-hydroxy-7-nitroquinolin-1-ium-5-yl)methyl)morpholin-4-ium chloride] gave an IC50 of 0.79 µM.
